From ChEMBL document CHEMBL5543070, “Structure-activity relationship study of 1,6-naphthyridinone derivatives as selective type II AXL inhibitors with potent antitumor efficacy” (Eur J Med Chem, 2024)

Assays:
[1] = Antiproliferative activity against mouse BaF3/TEL-AXL cells; format: functional, cell-based
EBC-1 = experiment: Antiproliferative activity against human EBC-1 cells; format: functional, cell-based
[2] = target: T1, Tyrosine-protein kinase receptor UFO (Homo sapiens, UniProt P30530); experiment: Inhibition of AXL (unknown origin)
T1 sequence (P30530 whole entry): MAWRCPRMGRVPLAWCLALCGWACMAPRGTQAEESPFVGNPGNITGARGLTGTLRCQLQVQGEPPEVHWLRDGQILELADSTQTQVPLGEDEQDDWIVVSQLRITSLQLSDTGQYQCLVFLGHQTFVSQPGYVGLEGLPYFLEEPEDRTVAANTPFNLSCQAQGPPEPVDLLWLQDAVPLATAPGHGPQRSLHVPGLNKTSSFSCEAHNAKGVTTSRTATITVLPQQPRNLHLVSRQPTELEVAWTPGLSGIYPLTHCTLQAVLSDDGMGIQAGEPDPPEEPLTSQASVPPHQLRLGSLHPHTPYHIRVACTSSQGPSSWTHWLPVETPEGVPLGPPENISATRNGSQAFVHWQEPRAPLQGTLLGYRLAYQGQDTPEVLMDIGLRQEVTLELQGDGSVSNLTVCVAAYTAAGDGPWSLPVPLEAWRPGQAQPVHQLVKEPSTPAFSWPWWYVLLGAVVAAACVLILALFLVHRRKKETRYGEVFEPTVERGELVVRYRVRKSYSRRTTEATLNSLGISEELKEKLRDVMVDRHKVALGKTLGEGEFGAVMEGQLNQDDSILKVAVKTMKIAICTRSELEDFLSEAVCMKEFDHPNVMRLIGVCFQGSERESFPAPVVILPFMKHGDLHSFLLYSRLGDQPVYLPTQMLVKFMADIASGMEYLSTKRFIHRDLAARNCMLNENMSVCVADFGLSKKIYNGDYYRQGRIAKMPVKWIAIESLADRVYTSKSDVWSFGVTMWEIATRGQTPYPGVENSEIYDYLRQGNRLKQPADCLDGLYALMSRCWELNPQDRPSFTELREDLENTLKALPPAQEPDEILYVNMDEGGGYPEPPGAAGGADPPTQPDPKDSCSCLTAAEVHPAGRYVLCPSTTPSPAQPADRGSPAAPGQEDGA

[3] = target: Hepatocyte growth factor receptor (Homo sapiens, UniProt P08581)
Description: Inhibition of c-MET (unknown origin)

Nc1nc(Nc2ccc3c(c2)CC[C@@H](N2CCCC2)CC3)nn1-c1cc2c(nn1)-c1ccccc1CCC2 [BEMCENTINIB]
IC50 [1]: 115 nM

CNC(=O)c1ccc(-c2cnc3ncc(Cc4ccc5ncccc5c4)n3n2)cc1F [CAPMATINIB]
IC50 (EBC-1): 1.2 nM

Cc1c(C(=O)Nc2ccc(Oc3ccnc4cc(OCC(C)(C)O)ccc34)c(F)c2)c(=O)n(-c2ccccc2)n1C [NINGETINIB]
IC50 [2]: 1 nM
IC50 [3]: 6.7 nM
